Data as given in patent publication US20070259014A1, “Compositions for and Methods for Treating Hiv” (VGX PHARMACEUTICALS, INC., priority 2003, published 2007).
Where two headings read alike, the source gives them in different places.

Tests used:
[1] = Sarkar, 2002; cited from earlier work
[2] = target: T1, human glucocorticoid receptor (Homo sapiens, UniProt P04150); details: cited from earlier work
T1 sequence (P04150 1-777): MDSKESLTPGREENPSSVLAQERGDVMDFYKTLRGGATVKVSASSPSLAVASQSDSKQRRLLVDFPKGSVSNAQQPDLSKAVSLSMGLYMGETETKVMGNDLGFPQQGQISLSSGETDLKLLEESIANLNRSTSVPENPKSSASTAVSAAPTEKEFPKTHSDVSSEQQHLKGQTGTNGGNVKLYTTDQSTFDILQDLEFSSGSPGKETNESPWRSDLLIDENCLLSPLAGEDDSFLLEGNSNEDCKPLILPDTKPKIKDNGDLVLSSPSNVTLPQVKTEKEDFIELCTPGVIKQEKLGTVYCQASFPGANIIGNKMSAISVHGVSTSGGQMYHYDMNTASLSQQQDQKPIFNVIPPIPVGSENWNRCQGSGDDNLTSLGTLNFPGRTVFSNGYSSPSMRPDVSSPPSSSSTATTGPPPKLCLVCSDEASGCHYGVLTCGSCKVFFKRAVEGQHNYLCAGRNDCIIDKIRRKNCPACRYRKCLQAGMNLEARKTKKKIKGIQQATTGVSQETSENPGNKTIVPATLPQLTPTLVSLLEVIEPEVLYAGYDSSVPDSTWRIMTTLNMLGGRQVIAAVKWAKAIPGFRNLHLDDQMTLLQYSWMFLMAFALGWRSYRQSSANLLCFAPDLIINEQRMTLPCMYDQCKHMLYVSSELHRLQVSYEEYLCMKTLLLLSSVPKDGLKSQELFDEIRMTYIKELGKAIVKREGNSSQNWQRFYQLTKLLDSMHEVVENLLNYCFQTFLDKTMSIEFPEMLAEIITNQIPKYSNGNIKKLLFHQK

Progesterone = Progesterone (Homo sapiens, UniProt P06401); details: comparative activity, Table 2; cited from earlier work
Chain of Progesterone (P06401 whole entry): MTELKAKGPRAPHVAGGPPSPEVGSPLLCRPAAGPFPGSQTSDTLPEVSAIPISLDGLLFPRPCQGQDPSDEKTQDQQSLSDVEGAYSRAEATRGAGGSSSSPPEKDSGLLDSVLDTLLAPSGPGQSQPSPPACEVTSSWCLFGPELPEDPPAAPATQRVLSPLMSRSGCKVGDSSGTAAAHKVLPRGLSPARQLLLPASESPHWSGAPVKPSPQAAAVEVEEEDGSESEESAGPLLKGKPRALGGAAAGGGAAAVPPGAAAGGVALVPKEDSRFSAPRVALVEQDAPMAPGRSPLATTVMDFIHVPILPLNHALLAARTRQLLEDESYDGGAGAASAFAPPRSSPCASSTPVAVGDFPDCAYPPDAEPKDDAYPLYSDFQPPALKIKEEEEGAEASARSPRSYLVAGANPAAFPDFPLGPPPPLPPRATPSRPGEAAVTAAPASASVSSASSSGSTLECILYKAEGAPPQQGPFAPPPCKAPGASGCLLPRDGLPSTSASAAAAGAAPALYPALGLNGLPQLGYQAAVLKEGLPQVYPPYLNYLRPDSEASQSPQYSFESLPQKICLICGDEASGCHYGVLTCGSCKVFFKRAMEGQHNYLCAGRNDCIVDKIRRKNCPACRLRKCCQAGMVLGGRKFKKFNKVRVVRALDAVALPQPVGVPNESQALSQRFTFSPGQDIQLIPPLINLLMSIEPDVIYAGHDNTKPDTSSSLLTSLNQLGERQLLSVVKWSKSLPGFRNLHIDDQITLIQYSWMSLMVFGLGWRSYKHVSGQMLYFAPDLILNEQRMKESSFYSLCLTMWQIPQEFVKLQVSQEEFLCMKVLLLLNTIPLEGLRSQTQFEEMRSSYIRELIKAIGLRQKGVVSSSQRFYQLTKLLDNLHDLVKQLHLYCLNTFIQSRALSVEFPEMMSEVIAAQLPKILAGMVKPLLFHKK

[3] = target: T1, human glucocorticoid receptor; test: Relative binding affinity to the human glucocorticoid receptor / anti-glucocorticoid activity; details: comparative ratio of anti-glucocorticoid to anti-progesterone activity
[4] = system: laboratory adapted and clinical isolate viruses (HIV); test: Inhibition of viral replication, several laboratory adapted and clinical isolate viruses; type: cell-based; details: mifepristone 40-1000 nM (17-430 ng/ml)
HIV-1 BaL = test: Anti-viral effect in vitro (Table 1), HIV-1 BaL; type: cell-based; details: Lab isolate, R5 (NSI)
HIV-1 89.6 = test: Anti-viral effect in vitro (Table 1), HIV-1 89.6; type: cell-based; details: HIV-1 89.6, Lab isolate, R5X4
HIV-1 Ada = test: Anti-viral effect in vitro (Table 1), HIV-1 Ada; type: cell-based; details: Lab isolate, R5 (NSI)
HIV-1 NL43 = test: Anti-viral effect in vitro (Table 1), HIV-1 NL43; type: cell-based; details: HIV-1 NL43, Lab isolate
91US054 = test: Anti-viral effect in vitro (Table 1), 91US054; type: cell-based, HIV; details: 91US054, Clinical isolate, R5 (NSI)
91US056 = test: Anti-viral effect in vitro (Table 1), 91US056; type: cell-based, HIV; details: 91US056, Clinical isolate, R5 (NSI)
92US657 = test: Anti-viral effect in vitro (Table 1), 92US657; type: cell-based, HIV; details: 92US657, Clinical isolate, R5 (NSI)
92US660 = test: Anti-viral effect in vitro (Table 1), 92US660; type: cell-based, HIV; details: 92US660, Clinical isolate, R5 (NSI)
92US714 = test: Anti-viral effect in vitro (Table 1), 92US714; type: cell-based, HIV; details: 92US714, Clinical isolate, R5 (NSI)
92US723 = test: Anti-viral effect in vitro (Table 1), 92US723; type: cell-based, HIV; details: 92US723, Clinical isolate, R5X4
92US727 = test: Anti-viral effect in vitro (Table 1), 92US727; type: cell-based, HIV; details: 92US727, Clinical isolate, R5 (NSI)
U1 = test: Anti-viral effect in vitro (Table 1), U1 infected cell; type: cell-based, HIV
J1.1 = test: Anti-viral effect in vitro (Table 1), J1.1 infected cell; type: cell-based, HIV
LL58 = test: Anti-viral effect in vitro (Table 1), LL58 infected cell; type: cell-based, HIV
ACH-2 = test: Anti-viral effect in vitro (Table 1), ACH-2 infected cell; type: cell-based, HIV
OM-10.1 = test: Anti-viral effect in vitro (Table 1), OM-10.1 infected cell; type: cell-based, HIV
[5] = system: HIV+ Patient 1 infected PBMCs; test: Anti-viral effect in vitro (Table 1), HIV+ Patient 1 infected PBMCs; type: cell-based
[6] = system: HIV+ Patient 2 infected PBMCs; test: Anti-viral effect in vitro (Table 1), HIV+ Patient 2 infected PBMCs; type: cell-based
[7] = system: HIV+ Patient 3 infected PBMCs; test: Anti-viral effect in vitro (Table 1), HIV+ Patient 3 infected PBMCs; type: cell-based
[8] = system: HIV+ Patient 4 infected PBMCs; test: Anti-viral effect in vitro (Table 1), HIV+ Patient 4 infected PBMCs; type: cell-based
[9] = system: wild type HIV-1 NL43 virus
[10] = system: alpha 1-acid glycoprotein (AAG); details: in-vitro studies; cited from earlier work

CC#C[C@]1(C)CCC2C3CCC4=CC(=O)CCC4=C3[C@@H](c3ccc(NC)cc3)C[C@@]21C (some centres unmarked)
Serum levels of the metabolite compared with Mifepristone [1]: always exceeded those of Mifepristone
relative binding affinities to the human glucocorticoid receptor [2]: 61%
Anti-Glucocorticoid ([2]; comparative activity, Table 2): 61%
Anti-Progesterone (Progesterone): 21%
A-G/A-P [3]: 290%

11β-(4dimethylaminophenyl)-17β-hydroxy-17-α-(propyl-lynyl)-4,9-dien-3-one [Mifepristone]
inhibition of viral replication [4]: > 90%
Maximum % Reduction in Viral Replication By Mifepristone in PBMCs (HIV-1 BaL): >90%
Maximum % Reduction in Viral Replication By Mifepristone in PBMCs (HIV-1 89.6): >90%
Maximum % Reduction in Viral Replication By Mifepristone in PBMCs (HIV-1 Ada): >90%
Maximum % Reduction in Viral Replication By Mifepristone in PBMCs (HIV-1 NL43): >90%
Maximum % Reduction in Viral Replication By Mifepristone in PBMCs (91US054): >95%
Maximum % Reduction in Viral Replication By Mifepristone in PBMCs (91US056): >95%
Maximum % Reduction in Viral Replication By Mifepristone in PBMCs (92US657): >80%
Maximum % Reduction in Viral Replication By Mifepristone in PBMCs (92US660): >90%
Maximum % Reduction in Viral Replication By Mifepristone in PBMCs (92US714): >90%
Maximum % Reduction in Viral Replication By Mifepristone in PBMCs (92US723): >90%
Maximum % Reduction in Viral Replication By Mifepristone in PBMCs (92US727): >95%
Maximum % Reduction in Viral Replication By Mifepristone in PBMCs (U1): >95%
Maximum % Reduction in Viral Replication By Mifepristone in PBMCs (J1.1): >95%
Maximum % Reduction in Viral Replication By Mifepristone in PBMCs (LL58): >90%
Maximum % Reduction in Viral Replication By Mifepristone in PBMCs (ACH-2): >95%
Maximum % Reduction in Viral Replication By Mifepristone in PBMCs (OM-10.1): >95%
Maximum % Reduction in Viral Replication By Mifepristone in PBMCs [5]: >95%
Maximum % Reduction in Viral Replication By Mifepristone in PBMCs [6]: >95%
Maximum % Reduction in Viral Replication By Mifepristone in PBMCs [7]: >90%
Maximum % Reduction in Viral Replication By Mifepristone in PBMCs [8]: >95%
mifepristone concentrations that consistently resulted in inhibition of HIV replication ([9]; FIG. 2): 40 to 1000 nM
mifepristone concentrations that consistently resulted in inhibition of HIV replication ([9]; FIG. 2, nM converted to ng/ml): 17 to 430 ng/mL
Inhibition of viral replication by mifepristone ([9]; U937 cells, different concentrations of mifepristone): dose-dependent
IC50 ([9]; read-out: IC50 of mifepristone, inhibition of HIV replication in vitro, FIG. 2, U937 cells infected with wild type HIV-1 NL43): 8 nM
Mifepristone concentrations that saturate AAG [10]: exceeding 2.5 microM

C[C@]12CCC(=O)C=C1CC[C@@H]1[C@@H]2[C@@H](O)C[C@@]2(C)[C@H]1CC[C@]2(O)C(=O)CO [cortisol]
relative binding affinities to the human glucocorticoid receptor [2]: 23%
